From patent US10238670B2, “9-aminomethyl minocycline compounds and methods of use thereof in urinary tract infection (UTI) treatment” (Paratek Pharmaceuticals, Inc., priority 2016, dated 2019)
In brackets after ≈: the same amount, converted by molar mass. Like-named read-outs stand apart in the source and are kept apart here.

What was measured:
Experiment in all cases: In vitro MIC, 2010 surveillance isolates
[1] = tested on: Acinetobacter spp; assay type: cell-based; conditions: for % R (resistance): CLSI breakpoints
[2] = tested on: A. baumanii; assay type: cell-based
[3] = tested on: MS CoNS; assay type: cell-based, Coagulase-Negative Staphylococcus
[4] = tested on: E. coli ESBL−; assay type: cell-based, Escherichia coli
[5] = tested on: E. faecium VNS; assay type: cell-based
[6] = tested on: E. faecalis VNS; assay type: cell-based
[7] = tested on: E. coli ESBL+; assay type: cell-based, Escherichia coli
[8] = tested on: MSSA; assay type: cell-based
[9] = tested on: MR CoNS; assay type: cell-based, Coagulase-Negative Staphylococcus
[10] = tested on: MRSA; assay type: cell-based
[11] = tested on: Enterobacter spp; assay type: cell-based
[12] = tested on: K. oxytoca; assay type: cell-based
[13] = tested on: E. cloacae CeftazS; assay type: cell-based
[14] = tested on: K. pneumoniae ESBL+; assay type: cell-based, Klebsiella pneumoniae
[15] = tested on: E. faecalis VS; assay type: cell-based
[16] = tested on: E. faecium VS; assay type: cell-based
[17] = tested on: E. cloacae CeftazR; assay type: cell-based
[18] = tested on: K. pneumoniae ESBL−; assay type: cell-based, Klebsiella pneumoniae

CO/N=C(\C(=O)N[C@@H]1C(=O)N2C(C(=O)O)=C(CSc3nc(=O)c(=O)[nH]n3C)CS[C@H]12)c1csc(N)n1 [Ceftriaxone]
MIC90 ([1]; Europe, N=43): > 8 µg/mL | % R (resistance) ([1]; L. Amer): 0% | % R (resistance) ([1]; N America): 0% | MIC90 ([1]; N America, N=42): > 8 µg/mL | MIC90 ([2]; Asia/Pac, N=275): > 8 µg/mL | MIC90 ([2]; Europe, N=145): > 8 µg/mL | MIC90 ([2]; L. Amer, N=275): > 8 µg/mL | MIC90 ([2]; N America, N=154): > 8 µg/mL | % R (resistance) ([3]; Asia/Pac, Eucast breakpoints): 0% | MIC90 ([3]; Asia/Pac, N=18): 8 µg/mL (≈ 14.4 µM) | % R (resistance) ([3]; Europe, Eucast breakpoints): 0% | MIC90 ([3]; Europe, N=185): 4 µg/mL (≈ 7.21 µM) | % R (resistance) ([3]; L. Amer, CLSI breakpoints): 0% | MIC90 ([3]; L. Amer, N=67): 4 µg/mL (≈ 7.21 µM) | % R (resistance) ([3]; N America, CLSI breakpoints): 0% | MIC90 ([3]; N America, N=191): 4 µg/mL (≈ 7.21 µM) | % R (resistance) ([4]; Asia/Pac, Eucast breakpoints): 0% | MIC90 ([4]; Asia/Pac, N=282): 0.12 µg/mL (≈ 0.216 µM) | % R (resistance) ([4]; Europe, Eucast breakpoints): 0% | MIC90 ([4]; Europe, N=1533): 0.12 µg/mL (≈ 0.216 µM) | % R (resistance) ([4]; L. Amer, CLSI breakpoints): 0% | MIC90 ([4]; L. Amer, N=389): 0.12 µg/mL (≈ 0.216 µM) | % R (resistance) ([4]; N America, CLSI breakpoints): 0% | MIC90 ([4]; N America, N=1172): 0.12 µg/mL (≈ 0.216 µM) | MIC90 ([5]; Asia/Pac, N=24): > 8 µg/mL | MIC90 ([5]; Europe, N=71): > 8 µg/mL | MIC90 ([5]; L. Amer, N=41): > 8 µg/mL | MIC90 ([5]; N America, N=478): > 8 µg/mL | range of MICs (N <10, shown instead of MIC90) ([6]; Asia/Pac, N=1): >8 | range of MICs (N <10, shown instead of MIC90) ([6]; Europe, N=8): >8 | range of MICs (N <10, shown instead of MIC90) ([6]; L. Amer, N=7): >8 | MIC90 ([6]; N America, N=38): > 8 µg/mL | % R (resistance) ([7]; Asia/Pac, Eucast breakpoints): 99.5% | MIC90 ([7]; Asia/Pac, N=219): > 8 µg/mL | resistance rates for ESBL-producing clinical isolates ([7]; E. coli): 95% | MIC90 ([7]; Escherichia coli, ESBL-producing E. coli, read-out: MIC90): > 8 µg/mL | % R (resistance) ([7]; Europe, Eucast breakpoints): 94.2% | MIC90 ([7]; Europe, N=274): > 8 µg/mL | % R (resistance) ([7]; L. Amer, CLSI breakpoints): 97.6% | MIC90 ([7]; L. Amer, N=168): > 8 µg/mL | % R (resistance) ([7]; N America, CLSI breakpoints): 85.8% | MIC90 ([7]; N America, N=134): > 8 µg/mL | % R (resistance) ([8]; Asia/Pac, Eucast breakpoints): 0% | MIC90 ([8]; Asia/Pac, N=641): 4 µg/mL (≈ 7.21 µM) | % R (resistance) ([8]; Europe, Eucast breakpoints): 0% | MIC90 ([8]; Europe, N=2109): 4 µg/mL (≈ 7.21 µM) | % R (resistance) ([8]; L. Amer, CLSI breakpoints): 0% | MIC90 ([8]; L. Amer, N=590): 4 µg/mL (≈ 7.21 µM) | % R (resistance) ([8]; N America, CLSI breakpoints): 0.1% | MIC90 ([8]; N America, N=2373): 4 µg/mL (≈ 7.21 µM) | % R (resistance) ([9]; Asia/Pac, Eucast breakpoints): 100% | MIC90 ([9]; Asia/Pac, N=77): > 8 µg/mL | % R (resistance) ([9]; Europe, Eucast breakpoints): 100% | MIC90 ([9]; Europe, N=510): > 8 µg/mL | % R (resistance) ([9]; L. Amer, CLSI breakpoints): 100% | MIC90 ([9]; L. Amer, N=301): > 8 µg/mL | % R (resistance) ([9]; N America, CLSI breakpoints): 100% | MIC90 ([9]; N America, N=461): > 8 µg/mL | % R (resistance) ([10]; Asia/Pac, Eucast breakpoints): 100% | MIC90 ([10]; Asia/Pac, N=428): > 8 µg/mL | % R (resistance) ([10]; Europe, Eucast breakpoints): 100% | MIC90 ([10]; Europe, N=750): > 8 µg/mL | % R (resistance) ([10]; L. Amer, CLSI breakpoints): 100% | MIC90 ([10]; L. Amer, N=506): > 8 µg/mL | % R (resistance) ([10]; N America, CLSI breakpoints): 100% | MIC90 ([10]; N America, N=2508): > 8 µg/mL | % R (resistance) ([11]; Asia/Pac, Eucast breakpoints): 30.8% | MIC90 ([11]; Asia/Pac, N=52): > 8 µg/mL | % R (resistance) ([11]; Europe, Eucast breakpoints): 39% | MIC90 ([11]; Europe, N=82): > 8 µg/mL | % R (resistance) ([11]; L. Amer, CLSI breakpoints): 31% | MIC90 ([11]; L. Amer, N=42): > 8 µg/mL | % R (resistance) ([11]; N America, CLSI breakpoints): 24.8% | MIC90 ([11]; N America, N=101): > 8 µg/mL | % R (resistance) ([12]; Asia/Pac, Eucast breakpoints): 29.4% | MIC90 ([12]; Asia/Pac, N=17): > 8 µg/mL | % R (resistance) ([12]; Europe, Eucast breakpoints): 17.7% | MIC90 ([12]; Europe, N=158): > 8 µg/mL | % R (resistance) ([12]; L. Amer, CLSI breakpoints): 40% | MIC90 ([12]; L. Amer, N=25): > 8 µg/mL | % R (resistance) ([12]; N America, CLSI breakpoints): 10.2% | MIC90 ([12]; N America, N=177): 4 µg/mL (≈ 7.21 µM) | % R (resistance) ([13]; Asia/Pac, Eucast breakpoints): 5% | MIC90 ([13]; Asia/Pac, N=100): 2 µg/mL (≈ 3.61 µM) | % R (resistance) ([13]; Europe, Eucast breakpoints): 7.7% | MIC90 ([13]; Europe, N=183): 2 µg/mL (≈ 3.61 µM) | % R (resistance) ([13]; L. Amer, CLSI breakpoints): 24.6% | MIC90 ([13]; L. Amer, N=57): > 8 µg/mL | % R (resistance) ([13]; N America, CLSI breakpoints): 3.3% | MIC90 ([13]; N America, N=210): 1 µg/mL (≈ 1.8 µM) | % R (resistance) ([14]; Asia/Pac, Eucast breakpoints): 93.5% | MIC90 ([14]; Asia/Pac, N=124): > 8 µg/mL | % R (resistance) ([14]; Europe, Eucast breakpoints): 94.7% | MIC90 ([14]; Europe, N=151): > 8 µg/mL | % R (resistance) ([14]; L. Amer, CLSI breakpoints): 99.5% | MIC90 ([14]; L. Amer, N=209): > 8 µg/mL | % R (resistance) ([14]; N America, CLSI breakpoints): 95.4% | MIC90 ([14]; N America, N=108): > 8 µg/mL | MIC90 ([15]; Asia/Pac, N=214): > 8 µg/mL | MIC90 ([15]; Europe, N=669): > 8 µg/mL | MIC90 ([15]; L. Amer, N=290): > 8 µg/mL | MIC90 ([15]; N America, N=863): > 8 µg/mL | MIC90 ([16]; Asia/Pac, N=106): > 8 µg/mL | MIC90 ([16]; Europe, N=303): > 8 µg/mL | MIC90 ([16]; L. Amer, N=51): > 8 µg/mL | MIC90 ([16]; N America, N=115): > 8 µg/mL | % R (resistance) ([17]; Asia/Pac, Eucast breakpoints): 100% | MIC90 ([17]; Asia/Pac, N=63): > 8 µg/mL | % R (resistance) ([17]; Europe, Eucast breakpoints): 100% | MIC90 ([17]; Europe, N=72): > 8 µg/mL | % R (resistance) ([17]; L. Amer, CLSI breakpoints): 100% | MIC90 ([17]; L. Amer, N=42): > 8 µg/mL | % R (resistance) ([17]; N America, CLSI breakpoints): 100% | MIC90 ([17]; N America, N=77): > 8 µg/mL | % R (resistance) ([18]; Asia/Pac, Eucast breakpoints): 0% | MIC90 ([18]; Asia/Pac, N=189): 0.12 µg/mL (≈ 0.216 µM) | % R (resistance) ([18]; Europe, Eucast breakpoints): 0% | MIC90 ([18]; Europe, N=361): 0.12 µg/mL (≈ 0.216 µM) | % R (resistance) ([18]; L. Amer, CLSI breakpoints): 0% | MIC90 ([18]; L. Amer, N=160): 0.12 µg/mL (≈ 0.216 µM) | % R (resistance) ([18]; N America, CLSI breakpoints): 0% | MIC90 ([18]; N America, N=671): 0.12 µg/mL (≈ 0.216 µM)
